The results in this text go back to the NIST ThermoML archive (doi:10.1016/j.fluid.2014.11.020).

The nature of the series: activity coefficient (dimensionless); of the first substance listed, at infinite dilution; xn = mol fraction of the nth substance listed. Particulars: Liquid, Chromatography, x1 = 0.

Numbers after ± are expanded uncertainties.

In the case of `C#CCCCC` [1-hexyne] + CCCOC[n+]1ccn(C)c1.N#C[N-]C#N, the activity coefficient (323.15 K) was found to be 6.98 ± 0.48 and the activity coefficient (333.15 K) is 7.6 ± 0.52.

On to `CCC(=O)CC` [pentan-3-one] + N#C[N-]C#N.N#C[N-]C#N.c1ccc(Cn2cc[n+](COCCCOC[n+]3ccn(Cc4ccccc4)c3)c2)cc1, for which the activity coefficient was found to be 2.88 ± 0.2 (323.15 K), 2.89 ± 0.2 (333.15 K) and 2.91 ± 0.2 (343.15 K).

Regarding `Cc1ccc(C)cc1` [1,4-dimethylbenzene] + N#C[N-]C#N.N#C[N-]C#N.c1ccc(Cn2cc[n+](COCCCOC[n+]3ccn(Cc4ccccc4)c3)c2)cc1, the activity coefficient by setting is: (323.15 K) 8.84 ± 0.6; (333.15 K) 8.42 ± 0.57; (343.15 K) 8.16 ± 0.56.

Consider `CCCCCCCCCC` [decane] + CCCOC[n+]1ccn(Cc2ccccc2)c1.F[B-](F)(F)F, for which the activity coefficient reads like this: (323.15 K) 244 ± 17; (333.15 K) 220 ± 15; (343.15 K) 178 ± 12.

Take `C1CCCCCC1` [cycloheptane] + Cn1cc[n+](COCCCOC[n+]2ccn(C)c2)c1.O=S(=O)([N-]S(=O)(=O)C(F)(F)F)C(F)(F)F.O=S(=O)([N-]S(=O)(=O)C(F)(F)F)C(F)(F)F: the activity coefficient runs as follows: (323.15 K) 41.5 ± 2.8; (333.15 K) 51.9 ± 3.5; (343.15 K) 63.5 ± 4.3.

For the molecule `CCCCO` [butan-1-ol] + CCCOC[n+]1ccc(N(C)C)cc1.O=S(=O)([N-]S(=O)(=O)C(F)(F)F)C(F)(F)F, the activity coefficient (323.15 K) amounted to 2.25 ± 0.15, the activity coefficient (333.15 K) was 2.04 ± 0.14 and the activity coefficient (343.15 K) turned out to be 1.85 ± 0.12.

With `CC1CCCCC1` [methylcyclohexane] + CCCCCCCCn1cc[n+](COCCC)c1C.N#C[N-]C#N, the activity coefficient turned out to be 5.11 ± 0.35 (323.15 K), 4.86 ± 0.33 (333.15 K) and 4.81 ± 0.33 (343.15 K).

For `CCCCO` [butan-1-ol] + N#C[N-]C#N.N#C[N-]C#N.c1ccc(Cn2cc[n+](COCCCOC[n+]3ccn(Cc4ccccc4)c3)c2)cc1, the activity coefficient reads like this: (323.15 K) 1.8 ± 0.12; (333.15 K) 1.68 ± 0.11; (343.15 K) 1.61 ± 0.11.

Turning to `CC#N` [acetonitrile] + Cn1cc[n+](COCCCOC[n+]2ccn(C)c2)c1.N#C[N-]C#N.N#C[N-]C#N, the activity coefficient (323.15 K) amounted to 0.68 ± 0.05, the activity coefficient (333.15 K) stood at 0.68 ± 0.05 and the activity coefficient (343.15 K) is 0.69 ± 0.05.

`ClCCl` [dichloromethane] + CCCCCCCCn1cc[n+](COCCCOC[n+]2ccn(CCCCCCCC)c2C)c1C.O=S(=O)([N-]S(=O)(=O)C(F)(F)F)C(F)(F)F.O=S(=O)([N-]S(=O)(=O)C(F)(F)F)C(F)(F)F: the activity coefficient is 0.3 ± 0.03 (323.15 K), 0.3 ± 0.03 (333.15 K) and 0.32 ± 0.03 (343.15 K).

Consider `CCO` [ethanol] + CCCOC[n+]1ccn(C)c1.O=S(=O)([N-]S(=O)(=O)C(F)(F)F)C(F)(F)F, for which the activity coefficient (323.15 K) amounted to 1.51 ± 0.1, the activity coefficient (333.15 K) worked out at 1.36 ± 0.09 and the activity coefficient (343.15 K) was 1.26 ± 0.08.

Turning to `C[N+](=O)[O-]` [nitromethane] + CCCOC[n+]1ccn(C)c1.O=S(=O)([N-]S(=O)(=O)C(F)(F)F)C(F)(F)F, the activity coefficient was found to be 0.55 ± 0.04 (323.15 K), 0.53 ± 0.04 (333.15 K) and 0.53 ± 0.04 (343.15 K).

With `CCC[N+](=O)[O-]` [1-nitropropane] + CCCOC[n+]1ccn(C)c1.N#C[N-]C#N, the activity coefficient (323.15 K) came to 1.36 ± 0.09, the activity coefficient (333.15 K) was 1.37 ± 0.09 and the activity coefficient (343.15 K) turned out to be 1.39 ± 0.09.

With `C1CCCCCC1` [cycloheptane] + CCCOC[n+]1ccc(N(C)C)cc1.O=S(=O)([N-]S(=O)(=O)C(F)(F)F)C(F)(F)F, the activity coefficient by setting is: (323.15 K) 18.6 ± 1.3; (333.15 K) 24.6 ± 1.7; (343.15 K) 31.7 ± 2.2.

Regarding `c1ccccc1` [benzene] + N#C[N-]C#N.N#C[N-]C#N.c1ccc(Cn2cc[n+](COCCCOC[n+]3ccn(Cc4ccccc4)c3)c2)cc1, the activity coefficient runs as follows: (323.15 K) 3.09 ± 0.21; (333.15 K) 2.95 ± 0.2; (343.15 K) 2.92 ± 0.2.

As for `CCCCCC` [hexane] + CCCCCCCCn1cc[n+](COCCC)c1C.N#C[N-]C#N, the activity coefficient (323.15 K) was 7.08 ± 0.48, the activity coefficient (333.15 K) was 6.92 ± 0.47 and the activity coefficient (343.15 K) worked out at 6.8 ± 0.46.

On to `CCC(=O)CC` [pentan-3-one] + CCCOC[n+]1ccc(N(C)C)cc1.O=S(=O)([N-]S(=O)(=O)C(F)(F)F)C(F)(F)F, for which the activity coefficient by setting is: (323.15 K) 0.72 ± 0.05; (333.15 K) 0.75 ± 0.05; (343.15 K) 0.76 ± 0.05.

With `CC(C)O` [propan-2-ol] + CCCOC[n+]1ccn(Cc2ccccc2)c1.F[B-](F)(F)F, the activity coefficient runs as follows: (323.15 K) 2.19 ± 0.15; (333.15 K) 1.96 ± 0.13; (343.15 K) 1.81 ± 0.12.

In the case of `CCCCCCCCCC` [decane] + CCCOC[n+]1ccn(Cc2ccccc2)c1.O=S(=O)([N-]S(=O)(=O)C(F)(F)F)C(F)(F)F, the activity coefficient (323.15 K) came to 28.8 ± 2, the activity coefficient (333.15 K) is 23.2 ± 1.6 and the activity coefficient (343.15 K) was found to be 21.1 ± 1.4.

As for `CCC[N+](=O)[O-]` [1-nitropropane] + CCCOC[n+]1ccn(Cc2ccccc2)c1.F[B-](F)(F)F, the activity coefficient turned out to be 1.16 ± 0.07 (323.15 K), 1.12 ± 0.07 (333.15 K) and 1.14 ± 0.07 (343.15 K).

As to `CCCCCCCCCCCC` [dodecane] + CCCCCCCCn1cc[n+](COCCCOC[n+]2ccn(CCCCCCCC)c2C)c1C.O=S(=O)([N-]S(=O)(=O)C(F)(F)F)C(F)(F)F.O=S(=O)([N-]S(=O)(=O)C(F)(F)F)C(F)(F)F, the activity coefficient is, setting by setting: (323.15 K) 15.4 ± 1.1; (333.15 K) 13.9 ± 0.95; (343.15 K) 13.1 ± 0.89.

For the molecule `CCC(C)=O` [butanone] + CCCCCCCCn1cc[n+](COCCC)c1C.N#C[N-]C#N, the activity coefficient reads like this: (323.15 K) 0.7 ± 0.05; (333.15 K) 0.64 ± 0.04; (343.15 K) 0.55 ± 0.04.

For `CC#N` [acetonitrile] + CCCOC[n+]1ccn(C)c1.O=S(=O)([N-]S(=O)(=O)C(F)(F)F)C(F)(F)F, the activity coefficient (323.15 K) was determined as 0.46 ± 0.04, the activity coefficient (333.15 K) was 0.46 ± 0.04 and the activity coefficient (343.15 K) was determined as 0.46 ± 0.04.

`CCC(=O)CC` [pentan-3-one] + CCCOC[n+]1ccn(Cc2ccccc2)c1.N#C[N-]C#N: the activity coefficient is 1.33 ± 0.09 (323.15 K), 1.4 ± 0.09 (333.15 K) and 1.43 ± 0.09 (343.15 K).

Consider `CCCCCCCCC` [nonane] + CCCCCCCCn1cc[n+](COCCC)c1C.N#C[N-]C#N, for which the activity coefficient was 14.9 ± 1 (323.15 K), 13.6 ± 0.93 (333.15 K) and 13.1 ± 0.9 (343.15 K).

Regarding `C=CCCCC` [hex-1-ene] + CCCCCCCCn1cc[n+](COCCC)c1C.O=S(=O)([N-]S(=O)(=O)C(F)(F)F)C(F)(F)F, the activity coefficient turned out to be 2.65 ± 0.18 (323.15 K), 2.38 ± 0.16 (333.15 K) and 2.47 ± 0.17 (343.15 K).

In the case of `C#CCCCCC` [1-heptyne] + CCCCCCCCn1cc[n+](COCCC)c1C.N#C[N-]C#N, the activity coefficient came out at 2.11 ± 0.14 (323.15 K) and 2.09 ± 0.14 (333.15 K).

As for `C#CCCCC` [1-hexyne] + CCCCCCCCn1cc[n+](COCCCOC[n+]2ccn(CCCCCCCC)c2C)c1C.N#C[N-]C#N.N#C[N-]C#N, the activity coefficient turned out to be 1.72 ± 0.12 (323.15 K), 1.68 ± 0.11 (333.15 K) and 1.63 ± 0.11 (343.15 K).

With `c1ccccc1` [benzene] + CCCCCCCCn1cc[n+](COCCCOC[n+]2ccn(CCCCCCCC)c2C)c1C.O=S(=O)([N-]S(=O)(=O)C(F)(F)F)C(F)(F)F.O=S(=O)([N-]S(=O)(=O)C(F)(F)F)C(F)(F)F, the activity coefficient was determined as 0.42 ± 0.04 (323.15 K), 0.41 ± 0.03 (333.15 K) and 0.41 ± 0.03 (343.15 K).

On to `Cc1ccccc1C` [1,2-dimethylbenzene] + N#C[N-]C#N.N#C[N-]C#N.c1ccc(Cn2cc[n+](COCCCOC[n+]3ccn(Cc4ccccc4)c3)c2)cc1, for which the activity coefficient worked out at 7.13 ± 0.49 (323.15 K), 6.87 ± 0.47 (333.15 K) and 6.71 ± 0.46 (343.15 K).

In the case of `CC(C)OC(C)C` [diisopropyl ether] + CCCOC[n+]1ccc(N(C)C)cc1.O=S(=O)([N-]S(=O)(=O)C(F)(F)F)C(F)(F)F, the activity coefficient was found to be 4.49 ± 0.31 (323.15 K), 4.54 ± 0.31 (333.15 K) and 4.12 ± 0.28 (343.15 K).

Consider `C#CCCCCC` [1-heptyne] + N#C[N-]C#N.N#C[N-]C#N.c1ccc(Cn2cc[n+](COCCCOC[n+]3ccn(Cc4ccccc4)c3)c2)cc1, for which the activity coefficient by setting is: (323.15 K) 19.1 ± 1.3; (333.15 K) 17.2 ± 1.2; (343.15 K) 15.9 ± 1.1.

For the molecule `CC1CCCC1` [methylcyclopentane] + CCCCCCCCn1cc[n+](COCCC)c1C.O=S(=O)([N-]S(=O)(=O)C(F)(F)F)C(F)(F)F, the activity coefficient runs as follows: (323.15 K) 2.72 ± 0.19; (333.15 K) 2.41 ± 0.16; (343.15 K) 2.27 ± 0.15.

`Cc1cccc(C)c1` [1,3-dimethylbenzene] + CCCOC[n+]1ccn(Cc2ccccc2)c1.O=S(=O)([N-]S(=O)(=O)C(F)(F)F)C(F)(F)F: the activity coefficient (323.15 K) worked out at 1.55 ± 0.1, the activity coefficient (333.15 K) worked out at 1.37 ± 0.09 and the activity coefficient (343.15 K) is 1.35 ± 0.09.

On to `Cc1ccc(C)cc1` [1,4-dimethylbenzene] + CN(C)c1cc[n+](COCCCOC[n+]2ccc(N(C)C)cc2)cc1.O=S(=O)([N-]S(=O)(=O)C(F)(F)F)C(F)(F)F.O=S(=O)([N-]S(=O)(=O)C(F)(F)F)C(F)(F)F, for which the activity coefficient reads like this: (323.15 K) 1.34 ± 0.09; (333.15 K) 1.36 ± 0.09; (343.15 K) 1.37 ± 0.09.

Regarding `C1CCCCC1` [cyclohexane] + Cn1cc[n+](COCCCOC[n+]2ccn(C)c2)c1.O=S(=O)([N-]S(=O)(=O)C(F)(F)F)C(F)(F)F.O=S(=O)([N-]S(=O)(=O)C(F)(F)F)C(F)(F)F, the activity coefficient was found to be 17.6 ± 1.2 (323.15 K) and 12.4 ± 0.85 (333.15 K).

Take `CC#N` [acetonitrile] + CCCOC[n+]1ccn(C)c1.F[B-](F)(F)F: the activity coefficient reads like this: (323.15 K) 0.73 ± 0.05; (333.15 K) 0.74 ± 0.05; (343.15 K) 0.75 ± 0.05.

With `CCc1ccccc1` [ethylbenzene] + Cn1cc[n+](COCCCOC[n+]2ccn(C)c2)c1.N#C[N-]C#N.N#C[N-]C#N, the activity coefficient is 11.2 ± 0.77 (323.15 K), 10.9 ± 0.75 (333.15 K) and 10.7 ± 0.73 (343.15 K).
